PubChem BioAssay (NCI)
Where “and” joins values, the source holds several entries; their conditions need not be identical. Equal entries are not always repeated.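 Values below derive from 48-hour exposures of cells grown in 96-well plates, with endpoints linearly interpolated between the two concentrations bracketing the appropriate inhibition level. GI50: concentration for 50% inhibition of growth. TGI is the concentration that stops growth completely.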

How the values were obtained:
Experiment in all cases: inhibition of tumour cell growth, NCI panel, 48 h; in the data active = GI50 below about 0.43 µM; inactive = the rest
A549 NSCLC = system: A549 NSCLC
CAKI-1 renal = system: CAKI-1 renal
786-0 renal = system: 786-0 renal
MCF7 breast = system: MCF7 breast
NCI-H226 lung = system: NCI-H226 lung
SNB-75 CNS = system: SNB-75 CNS
OVCAR-5 ovarian = system: OVCAR-5 ovarian
NCI-H460 lung = system: NCI-H460 lung
SR leukemia = system: SR leukemia
SW-620 colon = system: SW-620 colon
A498 renal = system: A498 renal
BT-549 breast = system: BT-549 breast
SN12C renal = system: SN12C renal
DU-145 prostate = system: DU-145 prostate
UACC-257 melanoma = system: UACC-257 melanoma
HS 578T breast = system: HS 578T breast
MDA-MB-231 breast = system: MDA-MB-231 breast
K-562 leukemia = system: K-562 leukemia
NCI-H522 lung = system: NCI-H522 lung
SF-268 CNS = system: SF-268 CNS
ACHN renal = system: ACHN renal
U251 CNS = system: U251 CNS
KM12 colon = system: KM12 colon
SK-MEL-5 melanoma = system: SK-MEL-5 melanoma
SK-MEL-28 melanoma = system: SK-MEL-28 melanoma
IGROV1 ovarian = system: IGROV1 ovarian
HOP-92 NSCLC = system: HOP-92 NSCLC
NCI-H23 lung = system: NCI-H23 lung
HT29 colon = system: HT29 colon
RXF 393 renal = system: RXF 393 renal
UACC-62 melanoma = system: UACC-62 melanoma
HCC-2998 colon = system: HCC-2998 colon
PC-3 prostate = system: PC-3 prostate
OVCAR-3 ovarian = system: OVCAR-3 ovarian
SF-539 CNS = system: SF-539 CNS
SNB-19 CNS = system: SNB-19 CNS
SF-295 CNS = system: SF-295 CNS
COLO 205 colon = system: COLO 205 colon
OVCAR-4 ovarian = system: OVCAR-4 ovarian
T-47D breast = system: T-47D breast
SK-OV-3 ovarian = system: SK-OV-3 ovarian
NCI/ADR-RES ovarian = system: NCI/ADR-RES ovarian
MALME-3M melanoma = system: MALME-3M melanoma
MOLT-4 leukemia = system: MOLT-4 leukemia
UO-31 renal = system: UO-31 renal
OVCAR-8 ovarian = system: OVCAR-8 ovarian
SK-MEL-2 melanoma = system: SK-MEL-2 melanoma
TK-10 renal = system: TK-10 renal
CCRF-CEM leukemia = system: CCRF-CEM leukemia
EKVX NSCLC = system: EKVX NSCLC
HL-60(TB) leukemia = system: HL-60(TB) leukemia
RPMI-8226 leukemia = system: RPMI-8226 leukemia
HOP-62 NSCLC = system: HOP-62 NSCLC
LOX IMVI melanoma = system: LOX IMVI melanoma
M14 melanoma = system: M14 melanoma
HCT-15 colon = system: HCT-15 colon
HCT-116 colon = system: HCT-116 colon
MDA-MB-435 = system: MDA-MB-435

CS(=O)(=O)N1CCN(Cc2cc3nc(-c4cccc5[nH]ncc45)nc(N4CCOCC4)c3s2)CC1
3820 nM and > 5150 nM: TGI (OVCAR-3 ovarian)
active: GI50 (CAKI-1 renal) 419 nM and 209 nM | GI50 (786-0 renal) 281 nM | GI50 (MCF7 breast) 76.6 nM and 83 nM | GI50 (SNB-75 CNS) 91.8 nM and 30.1 nM | GI50 (OVCAR-5 ovarian) 357 nM and 234 nM | GI50 (NCI-H460 lung) 357 nM and 311 nM | GI50 (A498 renal) 61.8 nM and 58.1 nM | GI50 (BT-549 breast) 271 nM and 231 nM | GI50 (UACC-257 melanoma) 184 nM and 162 nM | GI50 (HS 578T breast) 134 nM and 148 nM | GI50 (ACHN renal) 382 nM and 319 nM | GI50 (SK-MEL-28 melanoma) 345 nM and 133 nM | GI50 (IGROV1 ovarian) 57.1 nM and 38.9 nM | GI50 (HOP-92 NSCLC) 23.2 nM and 54.7 nM | GI50 (HT29 colon) 284 nM and 101 nM | GI50 (RXF 393 renal) 209 nM and 165 nM | GI50 (PC-3 prostate) 218 nM and 260 nM | GI50 (OVCAR-3 ovarian) 245 nM and 194 nM | GI50 (SF-295 CNS) 262 nM and 318 nM | GI50 (T-47D breast) 66.8 nM and 35 nM | GI50 (SK-OV-3 ovarian) 243 nM and 145 nM | GI50 (MALME-3M melanoma) 311 nM and 128 nM | GI50 (MOLT-4 leukemia) 315 nM and 302 nM | GI50 (UO-31 renal) 174 nM and 105 nM | GI50 (TK-10 renal) 110 nM and 94.9 nM | GI50 (HL-60(TB) leukemia) 121 nM and 52 nM
3710 nM and > 5340 nM: TGI (A549 NSCLC)
408 nM and 473 nM: GI50 (NCI-H226 lung)
728 nM and 276 nM: GI50 (MDA-MB-435)
493 nM and 224 nM: GI50 (SN12C renal)
456 nM and 320 nM: GI50 (LOX IMVI melanoma)
1540 nM and 1030 nM: TGI (RXF 393 renal)
1440 nM and 1110 nM: TGI (HS 578T breast)
3920 nM and > 3950 nM: TGI (CAKI-1 renal)
244 nM: TGI (UACC-62 melanoma)
197 nM and 508 nM: TGI (HOP-92 NSCLC)
> 100000 nM: TGI (MCF7 breast) | TGI (OVCAR-5 ovarian) | TGI (NCI-H460 lung) | TGI (SR leukemia) | TGI (SW-620 colon) | TGI (BT-549 breast) | TGI (SN12C renal) | TGI (DU-145 prostate) | TGI (MDA-MB-231 breast) | TGI (K-562 leukemia) | TGI (SF-268 CNS) | TGI (ACHN renal) | TGI (U251 CNS) | TGI (KM12 colon) | TGI (SK-MEL-5 melanoma) | TGI (NCI-H23 lung) | TGI (HT29 colon) | TGI (HCC-2998 colon) | TGI (PC-3 prostate) | TGI (SNB-19 CNS) | TGI (COLO 205 colon) | TGI (OVCAR-4 ovarian) | TGI (NCI/ADR-RES ovarian) | TGI (MOLT-4 leukemia) | TGI (OVCAR-8 ovarian) | TGI (SK-MEL-2 melanoma) | TGI (CCRF-CEM leukemia) | TGI (EKVX NSCLC) | TGI (HL-60(TB) leukemia) | TGI (HOP-62 NSCLC) | TGI (LOX IMVI melanoma) | TGI (M14 melanoma) | TGI (HCT-15 colon) | TGI (HCT-116 colon) | TGI (MDA-MB-435)
444 nM and 268 nM: GI50 (SF-539 CNS)
2460 nM: TGI (786-0 renal)
433 nM and 389 nM: TGI (A498 renal)
499 nM and 163 nM: GI50 (COLO 205 colon)
inactive: GI50 (A549 NSCLC) 477 nM and 430 nM | GI50 (SR leukemia) 2460 nM and 2020 nM | GI50 (SW-620 colon) 1290 nM and 484 nM | GI50 (DU-145 prostate) 610 nM and 427 nM | GI50 (MDA-MB-231 breast) 2620 nM and 504 nM | GI50 (K-562 leukemia) 3910 nM and > 2170 nM | GI50 (SF-268 CNS) 1590 nM and 625 nM | GI50 (U251 CNS) 1050 nM and 684 nM | GI50 (KM12 colon) 1360 nM and 754 nM | GI50 (SK-MEL-5 melanoma) 1110 nM and 537 nM | GI50 (NCI-H23 lung) 1370 nM and 603 nM | GI50 (SNB-19 CNS) 2910 nM and 896 nM | GI50 (OVCAR-4 ovarian) 2770 nM and 894 nM | GI50 (NCI/ADR-RES ovarian) 1760 nM and 1440 nM | GI50 (OVCAR-8 ovarian) 789 nM and 594 nM | GI50 (CCRF-CEM leukemia) 2300 nM and 909 nM | GI50 (EKVX NSCLC) 445 nM and 577 nM | GI50 (RPMI-8226 leukemia) 2000 nM and 1940 nM | GI50 (HOP-62 NSCLC) 655 nM and 573 nM | GI50 (M14 melanoma) 2130 nM and 438 nM | GI50 (HCT-15 colon) 721 nM and 453 nM | GI50 (HCT-116 colon) 1720 nM and 494 nM
789 nM and 740 nM: TGI (TK-10 renal)
> 4030 nM: TGI (UO-31 renal)
> 28000 nM: TGI (NCI-H522 lung)
425 nM and 301 nM: TGI (IGROV1 ovarian)
1270 nM and 325 nM: GI50 (SK-MEL-2 melanoma)
3280 nM and 495 nM: TGI (SNB-75 CNS)
2770 nM and > 2320 nM: TGI (UACC-257 melanoma)
> 21600 nM: TGI (NCI-H226 lung)
3110 nM and 3620 nM: TGI (SF-295 CNS)
505 nM: TGI (T-47D breast)
> 22200 nM: TGI (RPMI-8226 leukemia)
602 nM and 370 nM: GI50 (NCI-H522 lung)
3840 nM and 1680 nM: TGI (SK-OV-3 ovarian)
614 nM and 153 nM: GI50 (HCC-2998 colon)
